Source: patent US20260297080A1, “BICYCLIC COMPOUNDS AS CDK INHIBITORS” (BeOne Medicines I GmbH, priority 2022, published 2026)

Legend:
CDK2/Cyclin E1 = CDK2/Cyclin E1 (Homo sapiens, UniProt P24941); assay: CDK2/Cyclin E1 Biochemical Assay (TR-FRET), 0.060 mM ATP; details: 0.15 μM Rb (Ser780)-biotin substrate, pH7.0, 60 min preincubation, 120 min reaction, room temperature
In short: (§1)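 TR-FRET readout: 665/620 nm ratio from Eu-cryptate anti-pRb(Ser780) antibody plus streptavidin-XL665, converted to % inhibition and fitted (4-parameter logistic) for IC50. Reactions used 0.15 μM biotinylated Rb (Ser780) substrate, compound 0–10 μM, 60 min enzyme–compound preincubation, then 120 min reaction at room temperature.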

CDK1/Cyclin B1 = CDK1/Cyclin B1 (Homo sapiens, UniProt P06493); assay: CDK1/Cyclin B1 Biochemical Assay (TR-FRET), 0.015 mM ATP; details: 0.15 μM Rb (Ser780)-biotin substrate, pH7.0, 60 min preincubation, 120 min reaction, room temperature
In short: as §1

Sequence of CDK1/Cyclin B1 (P06493 whole entry): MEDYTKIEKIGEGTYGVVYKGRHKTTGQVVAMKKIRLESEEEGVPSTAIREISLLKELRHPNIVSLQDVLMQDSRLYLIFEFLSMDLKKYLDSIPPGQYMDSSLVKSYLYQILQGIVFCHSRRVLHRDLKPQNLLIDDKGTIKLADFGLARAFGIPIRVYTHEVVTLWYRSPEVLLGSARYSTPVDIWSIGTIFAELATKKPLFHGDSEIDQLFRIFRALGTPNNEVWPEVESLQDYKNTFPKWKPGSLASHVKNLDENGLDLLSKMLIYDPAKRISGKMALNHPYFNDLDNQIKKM
Sequence of CDK1/Cyclin B1 (P14635 whole entry partner): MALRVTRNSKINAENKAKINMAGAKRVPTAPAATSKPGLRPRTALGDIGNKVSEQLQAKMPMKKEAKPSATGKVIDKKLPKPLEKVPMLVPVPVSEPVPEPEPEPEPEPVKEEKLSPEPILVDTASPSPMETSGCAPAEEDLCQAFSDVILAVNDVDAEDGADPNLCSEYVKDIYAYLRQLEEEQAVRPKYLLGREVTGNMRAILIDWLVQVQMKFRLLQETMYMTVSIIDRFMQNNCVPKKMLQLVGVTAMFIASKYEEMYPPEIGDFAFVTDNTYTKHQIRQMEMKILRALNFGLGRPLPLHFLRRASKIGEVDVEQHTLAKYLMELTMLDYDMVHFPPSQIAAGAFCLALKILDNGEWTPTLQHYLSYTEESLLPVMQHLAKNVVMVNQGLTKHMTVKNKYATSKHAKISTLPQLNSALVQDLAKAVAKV

IC50 (CDK2/Cyclin E1) | IC50 (CDK1/Cyclin B1) | Structure (SMILES)
14 nM | 267 nM | C[C@H]1[C@H](O)CN1C(=O)O[C@H]1CC[C@@H](c2cc(Nc3ccc4c(c3F)CNS4(=O)=O)n[nH]2)C1 (relative stereo) [Example 145, cis-3-(3-((4-fluoro-1,1-dioxido-2,3-dihydrobenzo[d]isothiazol-5-yl)amino)-1H-pyrazol-5-yl)cyclopentyl(2S,3R)-3-hydroxy-2-methylazetidine-1-carboxylate]
8.1 nM | 323 nM | CC(C)(O)CNC(=O)O[C@H]1CC[C@@H](c2cc(Nc3ccc4c(c3F)CNS4(=O)=O)n[nH]2)C1 (relative stereo) [Example 146, cis-3-(3-((4-fluoro-1,1-dioxido-2,3-dihydrobenzo[d]isothiazol-5-yl)amino)-1H-pyrazol-5-yl)cyclopentyl(2-hydroxy-2-methylpropyl)carbamate]
9.1 nM | 606 nM | CC(NC(=O)O[C@H]1CC[C@@H](c2cc(Nc3ccc4c(c3F)CNS4(=O)=O)n[nH]2)C1)C1COC1 (relative stereo) [Example 147, cis-3-(3-((4-fluoro-1,1-dioxido-2,3-dihydrobenzo[d]isothiazol-5-yl)amino)-1H-pyrazol-5-yl)cyclopentyl(1-(oxetan-3-yl)ethyl)carbamate]
44 nM | 523 nM | O=C(NCC1COC1)O[C@H]1CC[C@@H](c2cc(Nc3ccc4c(c3F)CNS4(=O)=O)n[nH]2)C1 (relative stereo) [Example 148, cis-3-(3-((4-fluoro-1,1-dioxido-2,3-dihydrobenzo[d]isothiazol-5-yl)amino)-1H-pyrazol-5-yl)cyclopentyl(oxetan-3-ylmethyl)carbamate]
42 nM | 666 nM | O=C(NC1COC1)O[C@H]1CC[C@@H](c2cc(Nc3ccc4c(c3F)CNS4(=O)=O)n[nH]2)C1 (relative stereo) [Example 149, cis-3-(3-((4-fluoro-1,1-dioxido-2,3-dihydrobenzo[d]isothiazol-5-yl)amino)-1H-pyrazol-5-yl)cyclopentyl oxetan-3-ylcarbamate]
0.3 nM | 24 nM | O=C(NC12CC(C1)C2)O[C@H]1CC[C@@H](c2cc(Nc3ccc4c(c3F)CNS4(=O)=O)n[nH]2)C1 (relative stereo) [Example 150, cis-3-(3-((4-fluoro-1,1-dioxido-2,3-dihydrobenzo[d]isothiazol-5-yl)amino)-1H-pyrazol-5-yl)cyclopentyl bicyclo[1.1.1]pentan-1-ylcarbamate]
80 nM | 668 nM | O=C(NC1CC2(CCC2)C1)O[C@H]1CC[C@@H](c2cc(Nc3ccc4c(c3F)CNS4(=O)=O)n[nH]2)C1 (relative stereo) [Example 151, cis-3-(3-((4-fluoro-1,1-dioxido-2,3-dihydrobenzo[d]isothiazol-5-yl)amino)-1H-pyrazol-5-yl)cyclopentyl spiro[3.3]heptan-2-ylcarbamate]
3.6 nM | 324 nM | O=C(NC1CCC12CC2)O[C@H]1CC[C@@H](c2cc(Nc3ccc4c(c3F)CNS4(=O)=O)n[nH]2)C1 (relative stereo) [Example 152, cis-3-(3-((4-fluoro-1,1-dioxido-2,3-dihydrobenzo[d]isothiazol-5-yl)amino)-1H-pyrazol-5-yl)cyclopentyl spiro[2.3]hexan-4-ylcarbamate]
91 nM | 1120 nM | CNC(=O)O[C@H]1CC[C@@H](c2cc(Nc3ccc4c(c3F)CNS4(=O)=O)n[nH]2)C1 (relative stereo) [Example 153, cis-3-(3-((4-fluoro-1,1-dioxido-2,3-dihydrobenzo[d]isothiazol-5-yl)amino)-1H-pyrazol-5-yl)cyclopentyl methylcarbamate]
1.3 nM | 13 nM | CC1(C)CCN1C(=O)O[C@H]1CC[C@@H](c2cc(Nc3ccc4c(c3F)CNS4(=O)=O)n[nH]2)C1 (relative stereo) [Example 155, cis-3-(3-((4-fluoro-1,1-dioxido-2,3-dihydrobenzo[d]isothiazol-5-yl)amino)-1H-pyrazol-5-yl)cyclopentyl 2,2-dimethylazetidine-1-carboxylate]
1.7 nM | 76 nM | CC(NC(=O)O[C@H]1CC[C@@H](c2cc(Nc3ccc4c(c3F)CNS4(=O)=O)n[nH]2)C1)C1CC1 (relative stereo) [Example 156, cis-3-(3-((4-fluoro-1,1-dioxido-2,3-dihydrobenzo[d]isothiazol-5-yl)amino)-1H-pyrazol-5-yl)cyclopentyl(1-cyclopropylethyl)carbamate]
15 nM | 240 nM | O=C(NC1CCC1)O[C@H]1CC[C@@H](c2cc(Nc3ccc4c(c3F)CNS4(=O)=O)n[nH]2)C1 (relative stereo) [Example 157, cis-3-(3-((4-fluoro-1,1-dioxido-2,3-dihydrobenzo[d]isothiazol-5-yl)amino)-1H-pyrazol-5-yl)cyclopentyl cyclobutylcarbamate]
1 nM | 30 nM | CC(C)(C)NC(=O)O[C@H]1CC[C@@H](c2cc(Nc3ccc4c(c3F)CNS4(=O)=O)n[nH]2)C1 (relative stereo) [Example 159, cis-3-(3-((4-fluoro-1,1-dioxido-2,3-dihydrobenzo[d]isothiazol-5-yl)amino)-1H-pyrazol-5-yl)cyclopentyl tert-butylcarbamate]
105 nM | 579 nM | O=C(NC1CC2(CC2)C1)O[C@H]1CC[C@@H](c2cc(Nc3ccc4c(c3F)CNS4(=O)=O)n[nH]2)C1 (relative stereo) [Example 160, cis-3-(3-((4-fluoro-1,1-dioxido-2,3-dihydrobenzo[d]isothiazol-5-yl)amino)-1H-pyrazol-5-yl)cyclopentyl spiro[2.3]hexan-5-ylcarbamate]
6.5 nM | 332 nM | COCC(C)NC(=O)O[C@H]1CC[C@@H](c2cc(Nc3ccc4c(c3F)CNS4(=O)=O)n[nH]2)C1 (relative stereo) [Example 161, cis-3-(3-((4-fluoro-1,1-dioxido-2,3-dihydrobenzo[d]isothiazol-5-yl)amino)-1H-pyrazol-5-yl)cyclopentyl(1-methoxypropan-2-yl)carbamate]
0.8 nM | 18 nM | CC1(NC(=O)O[C@H]2CC[C@@H](c3cc(Nc4ccc5c(c4F)CNS5(=O)=O)n[nH]3)C2)CCC1 (relative stereo) [Example 163, cis-3-(3-((4-fluoro-1,1-dioxido-2,3-dihydrobenzo[d]isothiazol-5-yl)amino)-1H-pyrazol-5-yl)cyclopentyl(1-methylcyclobutyl)carbamate]
1.3 nM | 49 nM | CC(CC(F)(F)F)NC(=O)O[C@H]1CC[C@@H](c2cc(Nc3ccc4c(c3F)CNS4(=O)=O)n[nH]2)C1 (relative stereo) [Example 165, cis-3-(3-((4-fluoro-1,1-dioxido-2,3-dihydrobenzo[d]isothiazol-5-yl)amino)-1H-pyrazol-5-yl)cyclopentyl(4,4,4-trifluorobutan-2-yl)carbamate]
12 nM | 545 nM | CN1Cc2c(ccc(Nc3cc([C@@H]4CC[C@H](OC(=O)NCC(C)(C)O)C4)[nH]n3)c2F)S1(=O)=O (relative stereo) [Example 168, cis-3-(3-((4-fluoro-2-methyl-1,1-dioxido-2,3-dihydrobenzo[d]isothiazol-5-yl)amino)-1H-pyrazol-5-yl)cyclopentyl(2-hydroxy-2-methylpropyl)carbamate]
7.4 nM | 471 nM | CN1Cc2c(ccc(Nc3cc([C@@H]4CC[C@H](OC(=O)N[C@H]5CC[C@@](C)(O)CC5)C4)[nH]n3)c2F)S1(=O)=O (relative stereo) [Example 169, cis-3-(3-((4-fluoro-2-methyl-1,1-dioxido-2,3-dihydrobenzo[d]isothiazol-5-yl)amino)-1H-pyrazol-5-yl)cyclopentyl((1s,4s)-4-hydroxy-4-methylcyclohexyl)carbamate]
23 nM | 407 nM | C[C@H]1[C@H](O)CN1C(=O)O[C@H]1CC[C@@H](c2cc(Nc3ccc4c(c3F)CN(C)S4(=O)=O)n[nH]2)C1 (relative stereo) [Example 170, cis-3-(3-((4-fluoro-2-methyl-1,1-dioxido-2,3-dihydrobenzo[d]isothiazol-5-yl)amino)-1H-pyrazol-5-yl)cyclopentyl(2S,3R)-3-hydroxy-2-methylazetidine-1-carboxylate]
10 nM | 183 nM | CC(C)NC(=O)O[C@H]1CC[C@@H](c2cc(Nc3ccc4c(c3)CC(=O)NS4(=O)=O)n[nH]2)C1 (relative stereo) [Example 171, cis-3-(3-((1,1-dioxido-3-oxo-3,4-dihydro-2H-benzo[e][1,2]thiazin-6-yl)amino)-1H-pyrazol-5-yl)cyclopentyl isopropylcarbamate]
0.7 nM | 14 nM | CC(C)NC(=O)O[C@H]1CC[C@@H](c2cc(Nc3ccc4c(c3)CCNS4(=O)=O)n[nH]2)C1 (relative stereo) [Example 172, cis-3-(3-((1,1-dioxido-3,4-dihydro-2H-benzo[e][1,2]thiazin-6-yl)amino)-1H-pyrazol-5-yl)cyclopentyl isopropylcarbamate]
6.5 nM | 136 nM | O=C(O[C@H]1CC[C@@H](c2cc(Nc3ccc4c(c3)CNS4(=O)=O)n[nH]2)C1)N1CCCC1 (relative stereo) [Example 174, cis-3-(3-((1,1-dioxido-2,3-dihydrobenzo[d]isothiazol-5-yl)amino)-1H-pyrazol-5-yl)cyclopentyl pyrrolidine-1-carboxylate]
10 nM | 359 nM | O=C(O[C@H]1CC[C@@H](c2cc(Nc3ccc4c(c3)CNS4(=O)=O)n[nH]2)C1)N1CCC(O)C1 (relative stereo) [Example 175, cis-3-(3-((1,1-dioxido-2,3-dihydrobenzo[d]isothiazol-5-yl)amino)-1H-pyrazol-5-yl)cyclopentyl 3-hydroxypyrrolidine-1-carboxylate]
